Test results: patent US20250368638A1, “BICYCLIC INHIBITORS OF NICOTINAMIDE […], COMPOSITIONS AND USES THEREOF” (President and Fellows of Harvard College, priority 2021, published 2025)
Where two headings read alike, the source gives them in different places.

Tests used:
K562 (ATCC) cells = assay: Cellular potency: 1-MNA levels in K562 cells after compound incubation; assay type: cell-based; conditions: Homo sapiens, 24 h incubation
Method: Cellular potency was measured in K562 (ATCC) cells via measuring (1-methyl nicotinamide) 1-MNA levels after compound incubation at varying concentrations overnight. Cells were plated at 1 million per well and were incubated for 24 h with compounds at indicated concentrations. Cells were collected by pipetting and extracted with 200 ul acetonitrile containing internal deuterated standard 10 ng/ml d4-1-MNA. Samples were analyzed on an Agilent 64-60 Triple Quad LC/MS with Agilent 1290 Infinity HPLC using a Restek Allure 5 um PPFP column 150 mm×2.1. The mobile phase A was 2.5 mM ammonium formate in water, and mobile phase B was methanol with 0.1% formic acid, delivered at 0.25 mL/min. The capillary voltage was set to 2400V and the nozzle at 300V. The drying gas temperature was 240° C., the drying gas flow rate was 4 L/min, and the nebulizer pressure was 40 psi. The mass spectrometer was run in multiple reaction monitoring mode. Mass transitions were m/z 137.1 à 94.1 for 1-MNA and m/z 141.1 à 98.1 for d4-MNA.

[1] = Mouse PK studies of 11 (plasma); assay type: in vivo, Female C57B16/N mice; conditions: for T1/2: formulation a (0.2% Tween 80, 10% PEG300); for MRT inf: read-out: MRTInf—obs
From the text: Doses were freshly prepared on the day of dosing. Vehicle compositions of each dose are listed below. […] Adjust pH with 1 N hydrochloric acid to obtain a clear solution or (b) 0.2% Tween 80/20% PEG-300 in water. Adjust pH with 1 N hydrochloric acid to obtain a clear solution
Then the samples were vortexed for 30 s.

[2] = tested on: Salmonella typhimurium (TA98, TA1535, TA1537) and Escherichia coli WP2uvrA (pKM101); assay: Mini-Ames test; assay type: cell-based
Method: 1. The study evaluated the mutagenic potential of the test article, (or its metabolites) by measuring its ability to induce reverse mutations at selected loci of bacteria Salmonella typhimurium (TA98, TA1535, TA1537) and Escherichia coli WP2uvrA (pKM101) in both the presence and absence of microsomal enzymes.
2. […] Top agar containing 0.6% (w/v) agar and 0.5% (w/v) sodium chloride were supplemented with 0.5 mM D-biotin and 0.5 mM L-histidine for Salmonella typhimurium strains used or 0.5 mM D-biotin and 0.5 mM L-tryptophan for Escherichia coli WP2uvrA (pKM101) used.
3. In the Mini-Ames test, 4 strains were selected for testing: Salmonella typhimurium (TA98, TA1535.TA1537) and Escherichia coli WP2uvrA (pKM101). The test strains were prepared from frozen working stocks. 10 μL frozen working stock adding in 5 mL nutrient broth were incubated with 220 rpm shaking at 37±2° C. for 10 hours until an optical density (at 650 nm) of 0.6-0.8 were reached. The overnight culture were used for the mutagenicity test.
4. The test article was supplied as the powder and maintained at −20° C. until use. Stock solutions were prepared at 50 mg/mL in DMSO (Table 11A). […]
7. […] If the precipitation dose interfere with the scoring (count the number of the revertants), the lowest precipitating dose should be used as the top dose scored. […]
Background lawns are measured microscopically using a stereoscope. […]

[3] = female, C57B16/N, mouse, plasma, iv, 1 mg/kg, 1 mg/kg IV
[4] = female, C57B16/N, mouse, plasma, po, 10 mg/kg, 10 mg/kg PO, formulation a
[5] = female, C57B16/N, mouse, plasma, po, 50 mg/kg, 50 mg/kg PO, formulation a
[6] = female, C57B16/N, mouse, plasma, po, 50 mg/kg, 50 mg/kg PO, formulation b
[7] = female, C57B16/N, mouse, plasma, po, title: single 100 mg/kg dosage, 50 mg/kg^b, formulation b
[8] = female, C57B16/N, mouse, plasma, 1 mg/kg IV

## C[C@@H]1Cc2cc(C(N)=O)cnc2N1 [Compound 11, (2R)-2-methyl-2,3-dihydro-1H-pyrrolo[2,3-b]pyridine-5-carboxamide]
K562 (ATCC) cells
  IC50: 0.038 µM
[1]; 1 mg/kg IV
  AUClast/D: 464 kg·ng·h/mL/mg
  AUC—%Extrap—obs: 0.574%
  Cl_obs: 36.1 mL/min/kg
[1]; 10 mg/kg PO, formulation a
  AUClast/D: 58.2 kg·ng·h/mL/mg
  AUC—%Extrap—obs: 1.90%
  F_last: 12.7%
[1]; 10 mg/kg PO
  T1/2: 1.309 h
[1]; 50 mg/kg PO, formulation a
  AUClast/D: 1020 kg·ng·h/mL/mg
  AUC—%Extrap—obs: 0.258%
  Cmax: 22500 ng/mL
[1]; 50 mg/kg PO
  T1/2: 2.89 h
[1]; 50 mg/kg PO, formulation b
  AUClast/D: 865 kg·ng·h/mL/mg
  AUC—%Extrap—obs: 7.8%
[1]; [3]
  AUC(0-inf): 467 ng·h/mL
  AUC(0-t): 464 ng·h/mL
  MRT inf: 0.427 h
[1]; [4]
  AUC(0-inf): 593 ng·h/mL
  AUC(0-t): 582 ng·h/mL
  MRT inf: 2.21 h
[1]; [5]
  AUC(0-inf): 51300 ng·h/mL
  AUC(0-t): 51100 ng·h/mL
  MRT inf: 2.5 h
[1]; [6]
  AUC(0-inf): 46700 ng·h/mL
  AUC(0-t): 43200 ng·h/mL
  MRT inf: 3.97 h
[1]; [7]
  AUC(0-t): 116000 ng·h/mL
  Tmax: 0.25 h
  half-life: 3.43 h
[1]; female, C57B16/N, mouse, plasma, po, title: single 100 mg/kg dosage, 50 mg/kg^b, formulation b, read-out: Cmax
  Cmax: 43200 ng/mL
[1]; [8]
  C0: 2620 ng/mL
  half-life: 0.148 h
[1]; female, C57B16/N, mouse, plasma, 10 mg/kg PO, formulation a
  Tmax: 0.5 h
[1]; female, C57B16/N, mouse, plasma, 10 mg/kg PO, formulation a, read-out: Cmax
  Cmax: 412 ng/mL
[1]; female, C57B16/N, mouse, plasma, 50 mg/kg PO, formulation a
  Tmax: 0.25 h
[1]; female, C57B16/N, mouse, plasma, 50 mg/kg PO, formulation b (0.2% Tween 80, 20% PEG300)
  half-life: 4.1 h
[1]; female, C57B16/N, mouse, plasma, 50 mg/kg PO, formulation b, read-out: Cmax
  Cmax: 19000 ng/mL
[2]; all tested concentrations, every strain, with and without an S9 Fraction
  F value (Mini Ames): less than 2
[2]; various bacteria strains, with and without S9
  Mutagenicity (Mini-Ames): not mutagenic
